Experimental data taken from patent publication US9469650B2, “Melampomagnolide B derivatives” (BOARD OF TRUSTEES OF THE UNIVERSITY OF ARKANSAS, priority 2013, dated 2016).

What was measured:
COLO 205 = experiment: panel of 60 human tumor cell lines, growth inhibition (Colon Cancer); conditions: COLO 205
SK-MEL-28 = experiment: panel of 60 human tumor cell lines, growth inhibition (Melanoma); conditions: SK-MEL-28
SF-295 = experiment: panel of 60 human tumor cell lines, growth inhibition (CNS Cancer); conditions: SF-295
KM12 = experiment: panel of 60 human tumor cell lines, growth inhibition (Colon Cancer); conditions: KM12
SF-539 = experiment: panel of 60 human tumor cell lines, growth inhibition (CNS Cancer); conditions: SF-539
NCI-H322M = experiment: panel of 60 human tumor cell lines, growth inhibition (Non-Small Cell Lung Cancer)
NCI/ADR-RES = experiment: panel of 60 human tumor cell lines, growth inhibition (Ovarian Cancer)
SN12C = experiment: panel of 60 human tumor cell lines, growth inhibition (Renal Cancer)
BT-549 = experiment: panel of 60 human tumor cell lines, growth inhibition (Breast Cancer); conditions: BT-549
UACC-62 = experiment: panel of 60 human tumor cell lines, growth inhibition (Melanoma); conditions: UACC-62
ACHN = experiment: panel of 60 human tumor cell lines, growth inhibition (Renal Cancer)
HCT-116 = experiment: panel of 60 human tumor cell lines, growth inhibition (Colon Cancer); conditions: HCT-116
UO-31 = experiment: panel of 60 human tumor cell lines, growth inhibition (Renal Cancer); conditions: UO-31
SNB-75 = experiment: panel of 60 human tumor cell lines, growth inhibition (CNS Cancer); conditions: SNB-75
MDA-MB-435 = experiment: panel of 60 human tumor cell lines, growth inhibition (Melanoma); conditions: MDA-MB-435
HCC-2998 = experiment: panel of 60 human tumor cell lines, growth inhibition (Colon Cancer); conditions: HCC-2998
RXF 393 = experiment: panel of 60 human tumor cell lines, growth inhibition (Renal Cancer); conditions: RXF 393
SR = experiment: panel of 60 human tumor cell lines, growth inhibition (Leukemia)
SNB-19 = experiment: panel of 60 human tumor cell lines, growth inhibition (CNS Cancer); conditions: SNB-19

In the case of `C=C1C(=O)O[C@H]2[C@H]1CC/C(COC(=O)N1CCC(F)(F)CC1)=C\CC[C@@]1(C)O[C@@H]21` [JVM 2-66], the GI50 (COLO 205) is reported as 2.06 µM, the TGI (COLO 205) is reported as 4.17E−6 and the “Percent Growth” value (COLO 205; Log10 Concentration −4.0) is reported as −93%. For the same molecule, the “Percent Growth” value (COLO 205; Log10 Concentration −5.0) was −62%, the “Percent Growth” value (COLO 205; Log10 Concentration −6.0) was 101% and the “Percent Growth” value (COLO 205; Log10 Concentration −7.0) was 96%. For the same molecule, the “Percent Growth” value (COLO 205; Log10 Concentration −8.0) was 102%, the GI50 (SK-MEL-28) was 2.51 µM and the TGI (SK-MEL-28) was 7.42E−6. The “Percent Growth” value (SK-MEL-28; Log10 Concentration −4.0) was −84%, the “Percent Growth” value (SK-MEL-28; Log10 Concentration −5.0) was −14% and the “Percent Growth” value (SK-MEL-28; Log10 Concentration −6.0) was 92%. The “Percent Growth” value (SK-MEL-28; Log10 Concentration −7.0) was 94%, the “Percent Growth” value (SK-MEL-28; Log10 Concentration −8.0) was 102% and the GI50 (SF-295) was 12 µM. The TGI (SF-295) was 2.49E−5, the “Percent Growth” value (SF-295; Log10 Concentration −4.0) was −96% and the “Percent Growth” value (SF-295; Log10 Concentration −5.0) was 63%. For the same molecule, the “Percent Growth” value (SF-295; Log10 Concentration −6.0) was 91%, the “Percent Growth” value (SF-295; Log10 Concentration −7.0) was 91% and the “Percent Growth” value (SF-295; Log10 Concentration −8.0) was 95%. For the same molecule, the GI50 (KM12) was 8.55 µM, the TGI (KM12) was 2.26E−5 and the “Percent Growth” value (KM12; Log10 Concentration −4.0) was −85%. The “Percent Growth” value (KM12; Log10 Concentration −5.0) was 46%, the “Percent Growth” value (KM12; Log10 Concentration −6.0) was 99% and the “Percent Growth” value (KM12; Log10 Concentration −7.0) was 97%. For the same molecule, the “Percent Growth” value (KM12; Log10 Concentration −8.0) was 103%, the GI50 (SF-539) was 1.98 µM and the TGI (SF-539) was 459E−6. For the same molecule, the “Percent Growth” value (SF-539; Log10 Concentration −4.0) was −88%, the “Percent Growth” value (SF-539; Log10 Concentration −5.0) was −46% and the “Percent Growth” value (SF-539; Log10 Concentration −6.0) was 90%. For the same molecule, the “Percent Growth” value (SF-539; Log10 Concentration −7.0) was 85%, the “Percent Growth” value (SF-539; Log10 Concentration −8.0) was 96% and the GI50 (NCI-H322M) was 13 µM. The TGI (NCI-H322M) was 2.66E−5, the “Percent Growth” value (NCI-H322M; Log10 Concentration −4.0) was −92% and the “Percent Growth” value (NCI-H322M; Log10 Concentration −5.0) was 68%. For the same molecule, the “Percent Growth” value (NCI-H322M; Log10 Concentration −6.0) was 102%, the “Percent Growth” value (NCI-H322M; Log10 Concentration −7.0) was 99% and the “Percent Growth” value (NCI-H322M; Log10 Concentration −8.0) was 96%. For the same molecule, the GI50 (NCI/ADR-RES) was 5.22 µM, the TGI (NCI/ADR-RES) was 2.08E−5 and the “Percent Growth” value (NCI/ADR-RES; Log10 Concentration −4.0) was −65%. For the same molecule, the “Percent Growth” value (NCI/ADR-RES; Log10 Concentration −5.0) was 30%, the “Percent Growth” value (NCI/ADR-RES; Log10 Concentration −6.0) was 99% and the “Percent Growth” value (NCI/ADR-RES; Log10 Concentration −7.0) was 99%. For the same molecule, the “Percent Growth” value (NCI/ADR-RES; Log10 Concentration −8.0) was 100%, the GI50 (SN12C) was 2.72 µM and the TGI (SN12C) was 1.06E−5. The “Percent Growth” value (SN12C; Log10 Concentration −4.0) was −89%, the “Percent Growth” value (SN12C; Log10 Concentration −5.0) was 3% and the “Percent Growth” value (SN12C; Log10 Concentration −6.0) was 86%. For the same molecule, the “Percent Growth” value (SN12C; Log10 Concentration −7.0) was 94%, the “Percent Growth” value (SN12C; Log10 Concentration −8.0) was 98% and the GI50 (BT-549) was 2.69 µM. For the same molecule, the TGI (BT-549) was 8.54E−6, the “Percent Growth” value (BT-549; Log10 Concentration −4.0) was −99% and the “Percent Growth” value (BT-549; Log10 Concentration −5.0) was −7%. For the same molecule, the “Percent Growth” value (BT-549; Log10 Concentration −6.0) was 93%, the “Percent Growth” value (BT-549; Log10 Concentration −7.0) was 98% and the “Percent Growth” value (BT-549; Log10 Concentration −8.0) was 100%. For the same molecule, the GI50 (UACC-62) was 2.11 µM, the TGI (UACC-62) was 6.00E−6 and the “Percent Growth” value (UACC-62; Log10 Concentration −4.0) was −94%. For the same molecule, the “Percent Growth” value (UACC-62; Log10 Concentration −5.0) was −24%, the “Percent Growth” value (UACC-62; Log10 Concentration −6.0) was 86% and the “Percent Growth” value (UACC-62; Log10 Concentration −7.0) was 94%. The “Percent Growth” value (UACC-62; Log10 Concentration −8.0) was 97%, the GI50 (ACHN) was 1.79 µM and the TGI (ACHN) was 5.68E−6. The “Percent Growth” value (ACHN; Log10 Concentration −4.0) was −83%, the “Percent Growth” value (ACHN; Log10 Concentration −5.0) was −25% and the “Percent Growth” value (ACHN; Log10 Concentration −6.0) was 75%. The “Percent Growth” value (ACHN; Log10 Concentration −7.0) was 93%, the “Percent Growth” value (ACHN; Log10 Concentration −8.0) was 103% and the CC50 (ACHN; read-out: LC50) was 27.4 µM. The GI50 (HCT-116) was 1.41 µM, the TGI (HCT-116) was 3.30E−6 and the “Percent Growth” value (HCT-116; Log10 Concentration −4.0) was −100%. The “Percent Growth” value (HCT-116; Log10 Concentration −5.0) was −65%, the “Percent Growth” value (HCT-116; Log10 Concentration −6.0) was 70% and the “Percent Growth” value (HCT-116; Log10 Concentration −7.0) was 93%. For the same molecule, the “Percent Growth” value (HCT-116; Log10 Concentration −8.0) was 99%, the GI50 (UO-31) was 1.99 µM and the TGI (UO-31) was 5.44E−6. For the same molecule, the “Percent Growth” value (UO-31; Log10 Concentration −4.0) was −88%, the “Percent Growth” value (UO-31; Log10 Concentration −5.0) was −30% and the “Percent Growth” value (UO-31; Log10 Concentration −6.0) was 84%. For the same molecule, the “Percent Growth” value (UO-31; Log10 Concentration −7.0) was 86%, the “Percent Growth” value (UO-31; Log10 Concentration −8.0) was 80% and the GI50 (SNB-75) was 6.13 µM. The TGI (SNB-75) was 2.03E−5, the “Percent Growth” value (SNB-75; Log10 Concentration −4.0) was −95% and the “Percent Growth” value (SNB-75; Log10 Concentration −5.0) was 42%. For the same molecule, the “Percent Growth” value (SNB-75; Log10 Concentration −6.0) was 79%, the “Percent Growth” value (SNB-75; Log10 Concentration −7.0) was 75% and the “Percent Growth” value (SNB-75; Log10 Concentration −8.0) was 87%. The GI50 (MDA-MB-435) was 0.464 µM, the TGI (MDA-MB-435) was 1.89E−5 and the “Percent Growth” value (MDA-MB-435; Log10 Concentration −4.0) was −52%. For the same molecule, the “Percent Growth” value (MDA-MB-435; Log10 Concentration −5.0) was 20%, the “Percent Growth” value (MDA-MB-435; Log10 Concentration −6.0) was 30% and the “Percent Growth” value (MDA-MB-435; Log10 Concentration −7.0) was 91%. For the same molecule, the “Percent Growth” value (MDA-MB-435; Log10 Concentration −8.0) was 98%, the GI50 (HCC-2998) was 6.24 µM and the TGI (HCC-2998) was 2.11E−5. For the same molecule, the “Percent Growth” value (HCC-2998; Log10 Concentration −4.0) was −77%, the “Percent Growth” value (HCC-2998; Log10 Concentration −5.0) was 37% and the “Percent Growth” value (HCC-2998; Log10 Concentration −6.0) was 101%. For the same molecule, the “Percent Growth” value (HCC-2998; Log10 Concentration −7.0) was 91%, the “Percent Growth” value (HCC-2998; Log10 Concentration −8.0) was 96% and the GI50 (RXF 393) was 1.2 µM. For the same molecule, the TGI (RXF 393) was 2.53E−6, the “Percent Growth” value (RXF 393; Log10 Concentration −4.0) was −92% and the “Percent Growth” value (RXF 393; Log10 Concentration −5.0) was −92%. The “Percent Growth” value (RXF 393; Log10 Concentration −6.0) was 62%, the “Percent Growth” value (RXF 393; Log10 Concentration −7.0) was 95% and the “Percent Growth” value (RXF 393; Log10 Concentration −8.0) was 100%. The GI50 (SR) was 1.38 µM, the TGI (SR) was 7.24E−6 and the “Percent Growth” value (SR; Log10 Concentration −4.0) was −38%. For the same molecule, the “Percent Growth” value (SR; Log10 Concentration −5.0) was −10%, the “Percent Growth” value (SR; Log10 Concentration −6.0) was 60% and the “Percent Growth” value (SR; Log10 Concentration −7.0) was 87%. The “Percent Growth” value (SR; Log10 Concentration −8.0) was 94%, the GI50 (SNB-19) was 12.8 µM and the TGI (SNB-19) was 2.84E−5. The “Percent Growth” value (SNB-19; Log10 Concentration −4.0) was −79%, the “Percent Growth” value (SNB-19; Log10 Concentration −5.0) was 66% and the “Percent Growth” value (SNB-19; Log10 Concentration −6.0) was 89%. For the same molecule, the “Percent Growth” value (SNB-19; Log10 Concentration −7.0) was 91% and the “Percent Growth” value (SNB-19; Log10 Concentration −8.0) was 93%.
